Data set [1] deals with nicotinic receptors mediating dopamine release from rat synaptosomal preparations. Conditions: cited from earlier work.
Data set [2] has as its target human muscle nicotinic receptors (Homo sapiens, UniProt P02708+P07510+Q07001). Conditions: cited from earlier work.
The subject of data set [3] is putative α3β4-containing receptor. Conditions: cited from earlier work.
The subject of data set [4] is nicotinic receptors in preparations of rat thalamus. Conditions: cited from earlier work.
In the next data set the test system is development of myopia. Conditions: chick, tree shrew, monkey and human; cited from earlier work.
The subject of the next data set is accommodation. Conditions: nicotine intravitreal and subconjunctival; vecuronium bromide applied to corneas; cited from earlier work.
Data set [5] has as its system goggled eyes (form-deprivation myopia). The data set can be described thus: Form-deprivation myopia in unilaterally goggled chicks, intravitreal drug for one week.
The subject of data set [6] is chick eye (intraocular muscles, refraction, ocular dimensions). The data set can be described thus: Acute drug effects after a single intravitreal injection (pupil, refractometry, ultrasonography). Type of data set: in vivo, chicks. As to the method: Acute drug effects. To assess acute drug effects, other two-week old chicks (n=5/group) received a single unilateral intravitreal injection of one of the nicotinic antagonists at doses chosen based on drug effects on the growth of goggled eyes: 200 μg chlorisondamine, 50 μg and 1 μg mecamylamine, 5 μg methyllycaconitine or […] dihydro-β-erythroidine. Just before and at two hours and 24 hours after injection, both eyes were examined by refractometry and ultrasonography by the above methods.

Data set [7] relates to retina, retinal pigment epithelium, choroid. The data set can be described thus: Histopathological effects on goggled and never-goggled eyes. Format: in vivo, chicks. Conditions: one week. The method, then: Histopathological effects. To identify potential histopathologic effects in other groups of monocularly deprived or never-goggled one-week old chicks, chlorisondamine (200 or 100 μg every other day; n=5-6/group), mecamylamine (200 or 50 μg daily; n=5-8/group) or saline vehicle (n=3-9/group) was administered by intravitreal injection to the goggled eyes or to one of the open eyes of never-goggled chicks with vehicle to the contralateral eye, using the identical protocol as above. After one week of treatment, the above protocols provided refraction, ultrasound and caliper measurements. The eyes were then immersion fixed in 3% glutaraldehyde/0.5% paraformaldehyde in 0.1M phosphate buffer, pH 7.4. The posterior segments were either embedded in paraffin, cut at 5 μm thickness and stained with hematoxylin and eosin, or embedded in historesin, cut at 3 μm or 5 μm thickness and stained with 0.5% azure II/0.5% methylene blue in 1% borate.

In a further data set the test system is form deprived eye. The data set can be described thus: Longer term effects of single-dose chlorisondamine on form deprivation myopia. Conditions: for Refraction Difference: goggled minus contralateral eye. Format: in vivo, chicks. As to the method: Longer term effects of single-dose chlorisondamine. In a separate experiment, another group of goggled chicks received a single intravitreal dose of 200 μg of chlorisondamine to the form deprived eye and saline to the contralateral eye only at the time of goggle application. They were compared to a group of unilaterally goggled chicks receiving a single saline injection to both eyes only at the time of goggle application. Neither group received subsequent intraocular injections. These chicks were evaluated by refractometry and ultrasound 4 days later, using ketamine/xylazine anesthesia. At one week after goggle application and single drug injection, the same chicks were evaluated again with refractometry, ultrasonography and caliper measurements of enucleated eyes as described above.

The next data set concerns non-goggled eyes. The data set can be described thus: Eye growth and refraction of non-goggled (open) eyes, intravitreal drug for one week.
The test system of a further data set is chick eye refraction. Conditions: cited from earlier work.
In data set [8] the test system is ocular elongation following spectacle-induced hyperopic defocus. Conditions: applied to chick corneas; cited from earlier work.
[9] abbreviates: difference goggled vs contralateral open eye, intravitreal, one week, ANOVA over all doses.
The mark [10] stands for this setting: goggled chicks, P<0.05, dose groups that differ, listed as Chlorisondamine.
Setting [11] is: 2 hours after 200 μg single intravitreal injection.
[12] abbreviates: 24 hours after 200 μg single intravitreal injection.
The mark [13] stands for this setting: 100 μg every other day, goggled or non-goggled eyes.
Setting [14] is: 1 Week after single 200 μg dose.
Where [15] appears, read: 4 Days after single 200 μg dose.
Where [16] appears, read: never-goggled chicks, drug treated vs contralateral vehicle treated eye, ANOVA on ranks.
The mark [17] stands for this setting: non-goggled chicks, treated eyes, P<0.05.

Values joined by “and” are separate entries in the source; they are usually repeats but may differ in a detail not shown here. Equal entries are not always repeated. “Also recorded” adds a separate entry of the source.

Chain of human muscle nicotinic receptors (P02708 21-457): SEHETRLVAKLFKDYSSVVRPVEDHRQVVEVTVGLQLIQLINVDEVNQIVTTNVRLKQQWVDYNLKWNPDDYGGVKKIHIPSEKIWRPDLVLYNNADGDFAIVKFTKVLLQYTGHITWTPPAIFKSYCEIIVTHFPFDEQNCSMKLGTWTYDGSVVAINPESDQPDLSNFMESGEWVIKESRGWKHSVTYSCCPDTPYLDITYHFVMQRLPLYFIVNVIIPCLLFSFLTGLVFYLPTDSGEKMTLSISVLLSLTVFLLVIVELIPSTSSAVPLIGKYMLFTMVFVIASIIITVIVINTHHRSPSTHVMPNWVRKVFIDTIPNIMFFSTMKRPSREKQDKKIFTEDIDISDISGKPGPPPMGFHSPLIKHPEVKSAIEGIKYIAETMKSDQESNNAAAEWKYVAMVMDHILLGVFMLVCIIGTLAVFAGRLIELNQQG
Chain of human muscle nicotinic receptors (Q07001 22-517): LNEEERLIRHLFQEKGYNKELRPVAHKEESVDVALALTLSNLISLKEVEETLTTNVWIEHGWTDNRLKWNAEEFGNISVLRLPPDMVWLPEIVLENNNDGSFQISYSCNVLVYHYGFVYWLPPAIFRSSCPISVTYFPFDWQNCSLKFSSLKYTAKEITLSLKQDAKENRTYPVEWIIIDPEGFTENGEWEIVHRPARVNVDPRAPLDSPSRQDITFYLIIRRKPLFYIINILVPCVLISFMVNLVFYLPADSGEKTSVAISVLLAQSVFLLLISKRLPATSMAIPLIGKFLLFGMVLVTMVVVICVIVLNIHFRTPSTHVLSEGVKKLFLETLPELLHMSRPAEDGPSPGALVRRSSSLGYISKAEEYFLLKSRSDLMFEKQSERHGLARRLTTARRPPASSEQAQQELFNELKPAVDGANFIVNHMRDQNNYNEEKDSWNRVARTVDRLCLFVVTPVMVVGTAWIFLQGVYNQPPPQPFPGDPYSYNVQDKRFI
Chain of human muscle nicotinic receptors (P11230 24-501 partner): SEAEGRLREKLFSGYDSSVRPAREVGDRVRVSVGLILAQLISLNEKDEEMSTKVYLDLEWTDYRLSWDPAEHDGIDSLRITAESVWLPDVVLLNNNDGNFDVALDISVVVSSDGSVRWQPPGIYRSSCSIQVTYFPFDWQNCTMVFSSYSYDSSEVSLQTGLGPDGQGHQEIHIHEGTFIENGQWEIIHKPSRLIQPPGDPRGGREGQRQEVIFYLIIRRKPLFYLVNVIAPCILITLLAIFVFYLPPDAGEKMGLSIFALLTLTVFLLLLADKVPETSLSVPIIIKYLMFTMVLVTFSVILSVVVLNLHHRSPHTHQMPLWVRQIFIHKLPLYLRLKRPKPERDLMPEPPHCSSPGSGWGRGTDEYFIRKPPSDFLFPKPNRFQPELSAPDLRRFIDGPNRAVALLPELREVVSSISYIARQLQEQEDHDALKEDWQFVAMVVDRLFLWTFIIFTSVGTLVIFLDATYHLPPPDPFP
Chain of human muscle nicotinic receptors (P07510 23-517): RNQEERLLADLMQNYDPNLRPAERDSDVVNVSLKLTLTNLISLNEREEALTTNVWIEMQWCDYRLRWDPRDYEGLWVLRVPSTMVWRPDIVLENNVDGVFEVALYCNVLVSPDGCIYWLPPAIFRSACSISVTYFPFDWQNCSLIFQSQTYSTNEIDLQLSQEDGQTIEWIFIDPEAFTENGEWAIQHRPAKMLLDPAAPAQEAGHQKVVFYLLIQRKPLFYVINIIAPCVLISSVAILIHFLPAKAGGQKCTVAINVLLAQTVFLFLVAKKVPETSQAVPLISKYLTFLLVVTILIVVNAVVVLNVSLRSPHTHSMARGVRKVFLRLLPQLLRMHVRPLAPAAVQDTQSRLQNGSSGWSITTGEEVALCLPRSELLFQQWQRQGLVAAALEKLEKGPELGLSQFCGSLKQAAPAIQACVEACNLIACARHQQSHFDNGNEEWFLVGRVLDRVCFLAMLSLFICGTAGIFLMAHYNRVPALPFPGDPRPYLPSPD

On to `c1cncc(C2CC3CCN2CC3)c1` (racemic) [RJR-2429, (+/−)-2-(-3-pyridinyl)-1-azabicyclo [2.2.2]octane], for which, in data set [1], the “action at nicotinic receptors mediating dopamine release” value is “partial agonist”. In addition, the “action at human muscle nicotinic receptors” value in data set [2] is given as “selectively activates”. In addition, the “action at putative α3β4-containing receptor” value in data set [3] was “selectively activates”. The “action at nicotinic receptors in preparations of rat thalamus” value in [4] is listed as “inhibits”.

Take `CN1[C@@H]2CC[C@H]1C[C@@H](OC(=O)C(CO)c1ccccc1)C2` (stereo partly shown) [atropine]: the development of myopia entry in the data set on development of myopia is reported as “retards the development of myopia; also recorded: blocks myopia in the chick”. In addition, in the data set on accommodation, the “effect on accommodation in chicks” value is “fails to paralyze accommodation”.

For `C[N+](C)(C)CC[N+]1(C)Cc2c(Cl)c(Cl)c(Cl)c(Cl)c2C1` [chlorisondamine, chlorisondamine diiodide], in data set [5] (setting [9]), the “axial length measured by digital calipers, goggled eyes, drug effect” value is “inhibited the excessive axial elongation developing beneath a goggle”; the “axial length measured by ultrasound, goggled eyes, drug effect” value is on record as “inhibited the excessive axial elongation developing beneath a goggle”; the “equatorial diameter measured by calipers (equatorial expansion of vitreous cavity), goggled eyes, drug effect” value is recorded as “reduced the vitreous cavity expansion”; the “refraction of goggled eyes (myopic refractive error), drug effect” value was “reduced the myopic refractive error; also recorded: influenced the myopic refraction occurring beneath a goggle”. Further, the “vitreous cavity length measured by ultrasound, goggled eyes, drug effect” value in data set [5] (setting [9]) is recorded as “reduced the vitreous cavity expansion”. Moreover, the “Ultrasound measurements vitreous cavity depth: statistically significant post hoc pairwise comparisons (Tukey test)” value in [5] (goggled chicks, P<0.05, dose groups that differ) was 100 μg vs. 50 μg. Moreover, in data set [5] (setting [10]), the “Ultrasound measurements axial length: statistically significant post hoc pairwise comparisons (Tukey test)” value is listed as “significant drug effects compared to the vehicle-treated controls”, the “Ultrasound measurements vitreous cavity depth: statistically significant post hoc pairwise comparisons (Tukey test)” value was “significant drug effects compared to the vehicle-treated controls” and the “refraction: statistically significant post hoc pairwise comparisons (Tukey test)” value was “significant drug effects compared to the vehicle-treated controls”. Also, the “overall effect on excessive ocular growth / experimental myopia of goggled eyes” value in data set [5] (intravitreal, one week) is on record as “reduced the excessive ocular growth occurring beneath a goggle”. In addition, the “anterior chamber depth of goggled eyes, drug effect” value in data set [5] (intravitreal, one week, ANOVA) is reported as “no statistically significant effect”. For the same molecule, the “acute effect on ultrasound measurements of ocular dimensions, in words” value in data set [6] (2 and 24 hours after single intravitreal injection) was “transiently reducing axial and vitreous cavity lengths at the 2 hour but not at the 24 hour reading”. In data set [6] (setting [11]), the “reduction in axial length by ultrasonography” value worked out at 0.16±0.04 mm, the “reduction in posterior chamber depth by ultrasonography” value is 0.20±0.07 mm and the “reduction of lens thickness” value came to 0.12±0.04 mm. In [6] (setting [12]), the “axial length and posterior chamber depth at 24 hours” value is listed as “returned to baseline”; the “reduction of lens thickness” value is 0.16±0.05 mm. Moreover, in [6] (24 hours after single intravitreal injection (chlorisondamine 200 μg)), the “pupil diameter, change from baseline” value was determined as 0.7±0.2 mm. Also, the “pupil diameter, change from baseline” value in [6] (two hours after single intravitreal injection of 200 μg) stood at 0.8±0.1 mm. For the same molecule, in data set [7] (setting [13]), the “gross inspection of the eye cups” value is “either a normal fundus or only mild peripheral pigmentary changes”; the histology entry is “Some eyes had normal histology, some showed a single large, smooth hyper-pigmented inclusion within a rare RPE cell as the sole detectable histologic change, and some had a small isolated peripheral patch of the marked RPE/choriocapillaris pathology”. In [7] (200 μg every other day, most goggled eyes (4/5) and all never-goggled eyes (n=5)), the “gross inspection of the eye cup” value is “mild to marked mottling and depigmentation of the mid-peripheral fundus”. In data set [7] (200 μg every other day, regions corresponding to peripheral depigmented areas), the “histology of tissue sections” value was “marked disruption and clumping of cells of the retinal pigment epithelium (RPE)”. Besides, in the data set with form deprived eye (1 Week), the “axial length difference (ultrasound), ratio-chlorisondamine/vehicle” value is given as 0.54 and the “vitreous cavity length difference, ratio-chlorisondamine/vehicle” value is reported as 0.71. Moreover, in the data set on form deprived eye (setting [14]), the “Caliper Measurements axial length difference” value worked out at 0.22 ± 0.10 mm**, the “Caliper Measurements equatorial diameter difference” value came to 0.17 ± 0.07 mm****, the “Ultrasound Measurements axial length difference” value is recorded as 0.33 ± 0.11 mm** and the “Ultrasound Measurements vitreous cavity length difference” value was determined as 0.49 ± 0.08 mm*. Further, the “Refraction Difference” value with form deprived eye (setting [14]) is reported as −8.58 ± 2.06 diopters. Further, in the data set with form deprived eye (4 Days), the “axial length difference (ultrasound), ratio-chlorisondamine/vehicle” value was 0.47 and the “vitreous cavity length difference, ratio-chlorisondamine/vehicle” value is recorded as 0.70. Further, in the data set on form deprived eye (setting [15]), the “Ultrasound Measurements axial length difference” value came out at 0.20 ± 0.07 mm***, the “Ultrasound Measurements vitreous cavity length difference” value turned out to be 0.28 ± 0.06 mm and the “Refraction Difference” value is reported as −2.98 ± 1.88 diopters**. Also, in the data set on form deprived eye (single dose of 200 μg at the time of goggle application, over the next week), the “response for form deprivation after a single dose, in words” value is on record as “significantly blunted the response for form deprivation over the next week”. Further, in the data set with non-goggled eyes (never-goggled chicks, ANOVA on ranks), the “equatorial expansion of the vitreous cavity, non-goggled drug-treated eyes” value is recorded as “did not reach statistical significance”. The “increase in lens thickness” value in the data set with non-goggled eyes (never-goggled chicks, both eyes of the 10 μg group compared to 50, 100 or 200 μg doses and saline chicks) is “about 0.1 mm”. Further, in the data set on non-goggled eyes (setting [16]), the “axial expansion of the vitreous cavity, non-goggled drug-treated eyes” value was “growth reduction was confined to the vitreous cavity; also recorded: inhibited the axial expansion of the vitreous cavity”; the “axial length by calipers, non-goggled drug-treated eyes” value was “reduced the axial growth of drug-treated eyes; also recorded: reduced axial length”; the “axial length by ultrasound, non-goggled drug-treated eyes” value is “reduced the axial growth of drug-treated eyes; also recorded: reduced axial length”; the “refraction of non-goggled drug-treated eyes” value is given as “hyperopic shift in refraction; also recorded: shifted overall refraction towards hyperopia”. In the data set with non-goggled eyes (setting [17]), the “Ultrasound measurements vitreous cavity depth: statistically significant post hoc pairwise comparisons (Tukey test)” value is 100 μg and 50 μg and 100 μg vs. 50 μg; the “refraction: statistically significant post hoc pairwise comparisons (Tukey test)” value was 200 μg and 10 μg and 200 μg vs. 10 μg.

With `CN1CCCC1c1cccnc1` (stereo not shown) [nicotine], the “myopic refractive shift compared to non-treated eyes” value in the data set with chick eye refraction (daily subconjunctival injections, not seen for subconjunctival saline) was 0.75 diopters. Moreover, the “myopic shift in refraction compared to contralateral non-injected eyes” value in the data set with chick eye refraction (twice daily intravitreal injections for two weeks, intravitreal saline had the same effect) is about 2 diopter. In the data set with accommodation, the “effect on accommodation in chicks” value is given as “induce accommodation”.

As for `CC(=O)O[C@H]1C[C@@H]2CC[C@@H]3[C@H](CC[C@@]4(C)[C@H]3C[C@H]([N+]3(C)CCCCC3)[C@@H]4OC(C)=O)[C@@]2(C)C[C@@H]1N1CCCCC1` [vecuronium bromide], in data set [8], the “ocular elongation following spectacle-induced hyperopic defocus” value was “failed to influence”. In the data set with accommodation, the “effect on accommodation in chicks” value is listed as “paralyzed accommodation”.

These data come from patent US20030096831A1, “Ocular growth and nicotinic antagonists” (priority 2000, published 2003).
